Several values for one entry are separate records, joined by “and”; a condition that tells them apart may be missing. Equal entries are not always repeated.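 Values below derive from 48-hour exposures of cells grown in 96-well plates, with endpoints linearly interpolated between the two concentrations bracketing the appropriate inhibition level. At the GI50, growth is halved. The concentration for full growth arrest is given as TGI.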
Columns and labels:
Experiment in all cases: inhibition of tumour cell growth, NCI panel, 48 h
BT-549 breast = tested on: BT-549 breast
CAKI-1 renal = tested on: CAKI-1 renal
CCRF-CEM leukemia = tested on: CCRF-CEM leukemia
COLO 205 colon = tested on: COLO 205 colon
K-562 leukemia = tested on: K-562 leukemia
KM12 colon = tested on: KM12 colon
MDA-MB-435 = tested on: MDA-MB-435
OVCAR-5 ovarian = tested on: OVCAR-5 ovarian
SF-539 CNS = tested on: SF-539 CNS
UO-31 renal = tested on: UO-31 renal

Compound | GI50 (BT-549 breast) [µM] | TGI (BT-549 breast) | GI50 (CAKI-1 renal) [µM] | TGI (CAKI-1 renal) | GI50 (CCRF-CEM leukemia) | TGI (CCRF-CEM leukemia) [µM] | GI50 (COLO 205 colon) [µM] | TGI (COLO 205 colon) | GI50 (K-562 leukemia) [µM] | TGI (K-562 leukemia) [µM] | GI50 (KM12 colon) [µM] | TGI (KM12 colon) | GI50 (MDA-MB-435) [µM] | TGI (MDA-MB-435) | GI50 (OVCAR-5 ovarian) [µM] | TGI (OVCAR-5 ovarian) | GI50 (SF-539 CNS) [µM] | TGI (SF-539 CNS) | GI50 (UO-31 renal) | TGI (UO-31 renal)
O=C(/C=C\c1cc(Br)ccc1O)/C=C/c1cc(Br)ccc1O | 0.897 | 3.84 µM | 0.938 | 3.33 µM | 0.282 µM | 10.5 | 1.55 | 3.69 µM | 0.445 | 8.12 | 1.25 | 2.72 µM | 0.355 | 1.53 µM | 1.67 | 3.33 µM | 1.47 | 3.35 µM | 0.882 µM | 2.2 µM
CS(=O)(=O)O[C@H]1C(=O)N(c2cc3c4ccccc4ccc3c3ccccc23)[C@@H]1c1ccccn1 | 0.501 | 9.79 µM | 0.413 | > 100 µM | 0.515 µM | > 100 | 0.398 | 1.95 µM | – | – | 0.473 | > 100 µM | 0.217 | 0.597 µM | 0.711 | > 100 µM | 0.316 | 2.96 µM | 0.76 µM | > 100 µM
COc1ccc2nc3cc(Cl)ccc3c(NCCNCC(O)CO)c2c1 (stereo not drawn) | 6.69 | 20.8 µM | 5.79 | 20.3 µM | 1.69 µM | 13.8 | 0.622 | 2.41 µM | 0.807 | 10.2 | 1.66 | 10.7 µM | 1.44 | 4.61 µM | 2.16 | 11.2 µM | 1.23 | 9.14 µM | 3.62 µM | 17.4 µM
O=c1c2cccc(F)c2sc2c(NCCCNCCO)nc3ccccc3c12 | 6.16 | 19.8 µM | 1.42 | 2.73 µM | 1.41 µM | 3.87 | 1.61 | 3.96 µM | 1.75 | 4.64 | 1.61 | 3.04 µM | 1.63 | 3 µM | 1.65 | 3.07 µM | 1.65 | 3.05 µM | 1.1 µM | 2.35 µM
Clc1ccc(-c2nc3c(-c4ccccc4)nc(-c4ccccc4)cn3c2-c2ccc(Cl)cc2)cc1 | > 100 | > 100 µM | > 100 | > 100 µM | > 100 µM | > 100 | > 100 | > 100 µM | > 100 | > 100 | > 100 | > 100 µM | > 100 | > 100 µM | > 100 | > 100 µM | > 100 | > 100 µM | > 100 µM | > 100 µM
CS(=O)(=O)c1ccc2c(c1)C(=O)c1c-2n(CCCBr)c(=O)c2cc([N+](=O)[O-])ccc12 | 26.7 | > 100 µM | 16.4 | > 100 µM | 0.758 µM | 30.7 | > 100 | > 100 µM | 5.15 | > 100 | > 100 | > 100 µM | 82.6 | > 100 µM | > 100 | > 100 µM | 24 | > 100 µM | 3.12 µM | > 100 µM
C[C@]12CCCN1CC1=NNC(=O)c3cc(F)cc4[nH]c2c1c34 | 23.2 | 99.6 µM | 7.73 | > 100 µM | 22.5 µM | 81 | 14.6 | 40.6 µM | – | – | 9.6 | 30.3 µM | 23.7 | 80.6 µM | 20.2 | > 100 µM | 17.6 | 57.7 µM | 16 µM | > 100 µM
COC(=O)CC1C2(C)C3=C(C)C(c4ccoc4)CC3OC2C2OC(=O)C3(C)C=CC(=O)C1(C)C23 (stereo not drawn) | – | 2.35 µM | – | 2.15 µM | – | 2.17 | – | 3.58 µM | – | 4.82 | – | 3.55 µM | – | 2.69 µM | – | 5.44 µM | – | 3.03 µM | – | 2.52 µM
CC(C)(C)[Si](C)(C)OC1[C@@H](O[Si](C)(C)C(C)(C)C)[C@@H](CNC(=O)NC(=O)NC(=O)CCl)O[C@H]1n1cnc2c(NC(=O)Nc3ccccc3)ncnc21 (stereo partly drawn) | 6.57 | 13.1 µM | 2.2 | 9.42 µM | 0.127 µM | 0.334 | 6.3 | 13 µM | 2.56 | 7.51 | 1.84 | 6.12 µM | 6.61 | 17.6 µM | 6.41 | 14.1 µM | 8.82 | 16.1 µM | 0.959 µM | 1.89 µM
C[C@@H]1CC[C@H]2[C@@H](C)C(OC/C=C/COC3O[C@@H]4O[C@@]5(C)CC[C@H]6[C@H](C)CC[C@@H]([C@H]3C)[C@@]46OO5)O[C@@H]3O[C@@]4(C)CC[C@@H]1[C@]32OO4 (stereo partly drawn) | 0.0304 | > 100 µM | 0.046 | 2.87 µM | < 0.01 µM | > 50.6 | < 0.01 | 0.228 µM | < 0.0201 | > 41.6 | < 0.01 | – | 0.0161 | 25.1 µM | < 0.01 | 0.257 µM | – | – | 0.152 µM | > 92.9 µM
CC1NC(C(=O)O)Cc2cc(O)c(O)cc21 (stereo not drawn) | – | > 100 µM | – | > 100 µM | – | > 100 | – | > 100 µM | – | – | – | > 100 µM | – | > 100 µM | – | > 100 µM | – | > 100 µM | – | > 100 µM
CC(=O)NC(CS)C(=O)O (stereo not drawn) | – | > 100 µM | > 100 | > 100 µM and 53400 µM | – | > 100 | > 100 | > 100 µM | – | – | > 100 | > 100 µM and 98100 µM | > 100 | > 100 µM and 61900 µM | > 100 | > 100 µM and 66200 µM | > 100 | > 100 µM | > 100 µM | > 100 µM and 45400 µM
Cc1cc2c(C(=O)NCC#N)cccc2n1-c1nc2c(c(NCc3ccccc3)n1)CCCC2 | 0.251 | 0.7 µM | 0.666 | > 100 µM | – | – | 0.201 | 0.404 µM | 0.372 | > 100 | 0.242 | 0.643 µM | 0.249 | 0.809 µM | 0.395 | 1.94 µM | 0.249 | 0.764 µM | 0.305 µM | 1.11 µM
O=C1Nc2ccc(O)cc2/C1=C\c1ccncc1 | 15.2 | 43.6 µM | 17.9 | 54.2 µM | – | – | 26.3 | 64.8 µM | 17.7 | 56.2 | 16.9 | 46.4 µM | 18.2 | 71 µM | 27.2 | 57 µM | 6.11 | 23.1 µM | 14.1 µM | 31.8 µM
Cc1cncc(-c2nc(NCCc3c[nH]c4ccccc34)c3ncn(C(C)C)c3n2)c1 | 2.99 | 15 µM | 4.12 | 30.4 µM | 2.99 µM | 9.84 | 2.9 | 7.26 µM | – | – | 3.36 | 12.8 µM | 4.6 | 17 µM | 3.45 | 18.4 µM | 3.64 | 12.4 µM | 3.06 µM | 12.9 µM
Cc1cc(I)cc(CNCCN2CCOCC2)c1O | 15.4 | 61.3 µM | > 100 | > 100 µM | – | – | > 100 | > 100 µM | 87.5 | > 100 | 86.8 | > 100 µM | > 100 | > 100 µM | 59.8 | > 100 µM | 37.2 | > 100 µM | 67.8 µM | > 100 µM
COc1ccc(NC(=S)C#N)cc1 | – | > 100 µM | – | > 100 µM | – | > 100 | – | > 100 µM | – | > 100 | – | > 100 µM | – | > 100 µM | – | > 100 µM | – | > 100 µM | – | –
O=C(CN1CCN(CCN2C(=O)c3cccc4cccc(c34)C2=O)CC1)Nc1ccc2ncsc2c1 | 11.9 | 30.1 µM | 4.91 | > 100 µM | 5.4 µM | 53 | 5.44 | 54.6 µM | – | – | 6.16 | 25.4 µM | 5.52 | 20.4 µM | 10.5 | > 100 µM | 6.43 | 20.5 µM | 6.21 µM | 30.8 µM
C=C[C@H]1CN2CCc3c([nH]c4c([C@@H]5CCCN5C)c(O)ccc34)[C@@H]2C[C@@H]1C[C@H]1c2[nH]c3ccccc3c2CCN1C | – | 3.27 µM and 2.96 µM | – | 3 µM and 3.23 µM | 0.484 µM and 0.475 µM | – | – | 3.09 µM and 2.64 µM and 3.04 µM | – | – | 1.15 | 2.61 µM and 2.99 µM | 1.71 | 2.99 µM and 2.95 µM and 3.15 µM | – | 3.29 µM and 3.31 µM and 3.39 µM | 0.197 | 3.14 µM and 0.41 µM and 3.09 µM | 1.42 µM and 1.44 µM | 2.8 µM [middle of 4 runs]
CN1CCN(Cc2ccc(NC(=O)c3cncc(C#Cc4c(N)ncc5c(F)cccc45)c3)cc2C(F)(F)F)CC1 | 1.64 | 4.32 µM | 0.86 | 1.61 µM | – | – | 0.638 | 1.42 µM | 0.005 | 0.738 | 0.0133 | 0.65 µM | 0.597 | 1.24 µM | 0.794 | 1.56 µM | 0.593 | 1.22 µM | 0.712 µM | 1.42 µM

Source: PubChem BioAssay (NCI)
